4 compounds from patent US20120225909A1, “INDAZOLE ANALOG” (priority 2009, published 2012) can be followed below.

pEC50: −log10 of the molar value.

Data set [1] concerns the target T1, human β3-adrenergic receptor (Homo sapiens, UniProt P13945).
T1 construct: A full-length human β3 gene is obtained from a human genomic library (made by Clontech) using this as the probe; expressed in transfected cells; host or cells: CHO (Chinese hamster ovary) cells, pcDNA3
The experiment in a line: Test Case 1-B: human β3-adrenergic receptor agonist activity (cAMP-Screen, 96-well). The note with it: for Emax: 0.5 h, read-out: β3 receptor I.A.; for pEC50: CHO cells, cAMP. It counts as cell-based. The gist of the method:
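CHO cells stably transfected with full-length human β3 gene, serum-starved 15 min, then exposed to serially diluted compound in Ham's F-12 with 100 mmol/L HEPES and 1 mmol/L IBMX (diluent concentrations) for 30 min. Cells lysed 30 min at 37 °C; cAMP quantified by cAMP-Screen immunoassay.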

Data set [2] has as its target T2, human β1-adrenergic receptor (Homo sapiens, UniProt P08588).
T2 construct: expressed in transfected cells; host or cells: CHO (Chinese hamster ovary) cells, pcDNA3
Briefly: Test Case 2-C: human β1-adrenergic receptor agonist activity (Cerep cellular functional GPCR, beta 1). The note with it: concentration 10 μM, isoproterenol = 100%. It counts as cell-based. An excerpt: Measurement of Human β1-Adrenergic Receptor Agonist Activity

Data set [3] deals with Male C57BL/6 Cr mice. The experiment in a line: Test Case 10: mouse piloerection test. The note with it: 10 mg/kg i.v., Score 0. It counts as in vivo. The protocol:
Male C57BL/6 Cr mice (Japan SLC) are used. The dissolved compound is administered rapidly via a caudal vein. The animal is placed on the observation stand 5, 15, 30, and 60 minutes after administration, and the state of piloerection is observed. The state of piloerection is evaluated by the following 7-level scoring system according to the examples by the method of Irwin (Psychopharmacologia 1968, 13; 222-257).
Scoring system: “Score 0”: No piloerection at all; “Score 1”: Slight piloerection (piloerection on part of the body such as the back or neck); “Score 2”: Moderate piloerection (piloerection over the entire body); “Score 3”: Marked piloerection (piloerection over the entire body, conspicuous to the extent that the skin can be seen).
“Score 0.5” is between “Score 0” and “Score 1” “Score 1.5” is between […]. “Score 2.5” is between “Score 2” and “Score 3.”

Data set [4] has as its system pentobarbital-anesthetized rats. Briefly: Test Case 9: effects on the blood pressure and heart rate in pentobarbital-anesthetized rats. The format is in vivo, rat. The note with it: anesthetized male SD rats; 3 mg/kg intravenous over 30 seconds; maximum change, mean±standard deviation. The protocol:
Effects on the blood pressure and heart rate in pentobarbital-anesthetized rats
The blood pressure and heart rate of rats under pentobarbital anesthesia are measured, and the effects of rapid intravenous administration of the test compound on the blood pressure and heart rate can be studied. After anesthetizing male SD rats (Japan SLC) by intraperitoneal administration of 50 mg/kg of pentobarbital sodium (Tokyo Chemical Industry Co., Ltd.), 25 mg/kg of pentobarbital sodium is administered subcutaneously as maintenance anesthesia. The left femoral vein is exposed and stripped, and a SP10 polyethylene tube filled with saline (connected to a three-way stopcock via a ¼ venous needle) is inserted and left in place in the vein.
The inside of the left thigh is cut, and the femoral artery is exposed and stripped. A polyethylene tube filled with heparinized physiological saline solution (SP31, connected to a three-way stopcock via a Terumo injection needle 22G) is inserted and connected to a pressure transducer. The blood pressure is measured from the pressure transducer via a strain pressure amplifier (AP-641G, Nihon Kohden). The heart rate is measured with the pulse wave of the blood pressure as a trigger via a heart rate counter (AT-601G, Nihon Kohden). The blood pressure, mean blood pressure, and heart rate are output to a recorder and recorded. Furthermore, the mean blood pressure is recorded via the strain pressure amplifier (AP-641G) using the formula {[…]}.
Specifically, 3 mg/mL of test compound is administered rapidly at a volume of 1 mL/kg. The relative value (%) of the values at each point in time versus the mean blood pressure and heart rate before beginning administration are determined for each individual, and the mean±standard deviation of the relative value (%) at the time of the maximum change in each parameter is determined.

Data set [5] concerns the target T3, human β2-adrenergic receptor (Homo sapiens, UniProt P07550).
T3 construct: expressed in transfected cells; host or cells: CHO (Chinese hamster ovary) cells, pcDNA3
The experiment in a line: Test Case 3-C: human β2-adrenergic receptor agonist activity (Cerep cellular functional GPCR, beta 2). The format is cell-based. The note with it: concentration 10 μM, isoproterenol = 100%. An excerpt:
(§1) Measurement of Human β2-Adrenergic Receptor Agonist Activity

In data set [6] the target is T4, human α1A-adrenergic receptor (Homo sapiens, UniProt P35348).
T4 sequence (P35348 1-466): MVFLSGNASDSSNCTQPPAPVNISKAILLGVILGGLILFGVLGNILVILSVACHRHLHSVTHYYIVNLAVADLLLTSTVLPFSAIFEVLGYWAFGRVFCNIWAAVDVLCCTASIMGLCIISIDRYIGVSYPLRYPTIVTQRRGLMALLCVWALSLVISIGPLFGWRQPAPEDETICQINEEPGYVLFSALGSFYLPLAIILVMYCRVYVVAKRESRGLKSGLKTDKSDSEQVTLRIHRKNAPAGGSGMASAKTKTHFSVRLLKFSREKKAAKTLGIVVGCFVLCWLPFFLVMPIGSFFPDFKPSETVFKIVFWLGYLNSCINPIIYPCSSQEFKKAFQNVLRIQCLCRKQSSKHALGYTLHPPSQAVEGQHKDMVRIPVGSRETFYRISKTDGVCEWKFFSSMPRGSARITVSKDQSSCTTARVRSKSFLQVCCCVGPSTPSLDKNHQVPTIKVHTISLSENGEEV
Briefly: Test Case 4-B: human α1A-adrenergic receptor agonist activity (Cerep cellular functional GPCR, alpha 1A). The format is cell-based. The arrangement: expressed in transfected cells. The note with it: concentration 10 μM; for α1 receptor % of Control Agonist Response, Control; Epinephrine: epinephrine = 100%; for α1 receptor % of Control Agonist Response, Control; Norepinephrine: norepinephrine = 100%. An excerpt: Measurement of Human α1A-Adrenergic Receptor Agonist Activity
The human α1A-adrenergic receptor agonist activity] can be measured by […] Functional GPCR·Gs, alpha 1A (Ref. 722-36a) listed on p. 52 of the Cerep 2008 CATALOG IN VITRO PHARMACOLOGY & ADME-TOX.

For data set [7], the target named is T3, human β2-adrenergic receptor. The experiment in a line: Test Case 3-B: human β2-adrenergic receptor agonist activity. It counts as cell-based. The note with it: read-out: β2 receptor I.A. As for the experimental part: as §1
The human β2-adrenergic receptor agonist activity is measured by the same method as in Test Case 1-B using CHO (Chinese hamster ovary) cells transfected by a human β2 gene inserted in pcDNA3 (Invitrogen).

In data set [8] the test system is common marmoset isolated bladder smooth muscle. The experiment in a line: Test Case 7: common marmoset isolated bladder smooth muscle relaxation test. Particulars: KCl 40 mmol/L contracted marmoset bladder, papaverine 10^−4 mol/L relaxation = 100%. The protocol: Common Marmoset Isolated Bladder Smooth Muscle Relaxation Test
After sacrificing common marmosets (Japan CLEA) by exsanguination, they are laparotomized and the urinary bladder is removed. […] The specimens are loaded with one gram of resting tension and stabilized for 30 or more minutes. After the resting tension of the specimen has stabilized, a final concentration of 40 mmol/L of KCl is added repeatedly, and it is confirmed that the contraction in response to KCl has basically become constant. […] Taking that relaxation response as 100%, the relaxation rate (%) at test compound concentrations of […] is calculated.

For data set [9], the target named is T1, human β3-adrenergic receptor. Briefly: Test Case 1-A: human β3-adrenergic receptor agonist activity (cAMP-EIA, 24-well). Particulars: maximum response of isoproterenol = 100%. The format is cell-based. The protocol: Measurement of Human β3-Adrenergic Receptor Agonist Activity
The human β3-adrenergic receptor agonist activity is measured using CHO (Chinese hamster ovary) cells transfected by a human β3 gene inserted in pcDNA3 (Invitrogen). […] A full-length human β3 gene is obtained from a human genomic library (made by Clontech) using this as the probe. These cells are cultured in Ham's F-12 medium containing 10% fetal calf serum and 400 μg/mL genectin (Invitrogen). These cells are sown in 24-well plates to make 1×10^5 cells/well. After culturing for approximately 20 hours, they are allowed to stand for two hours in serum-free Ham's F-12 medium. […] After culturing for 30 minutes, the medium is removed, and 0.1 mL of 1 N NaOH is added and allowed to stand for 20 minutes. A quantity of 0.1 mL of 1 N acetic acid is added. After stirring, centrifugation is performed, and cAMP is assayed using a cAMP-EIA kit (made by Cayman).

T1 sequence (P13945 whole entry): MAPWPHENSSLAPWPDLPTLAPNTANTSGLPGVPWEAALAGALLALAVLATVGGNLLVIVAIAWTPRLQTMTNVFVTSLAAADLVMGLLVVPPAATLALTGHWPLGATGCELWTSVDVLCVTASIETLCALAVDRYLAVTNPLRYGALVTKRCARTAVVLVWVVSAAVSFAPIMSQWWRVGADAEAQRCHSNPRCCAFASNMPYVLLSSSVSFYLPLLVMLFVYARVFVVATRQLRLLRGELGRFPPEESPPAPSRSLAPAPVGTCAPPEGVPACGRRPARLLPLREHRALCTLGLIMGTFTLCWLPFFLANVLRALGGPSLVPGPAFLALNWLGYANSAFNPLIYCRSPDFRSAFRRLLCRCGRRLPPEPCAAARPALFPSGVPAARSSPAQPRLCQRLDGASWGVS
T2 sequence (P08588 whole entry): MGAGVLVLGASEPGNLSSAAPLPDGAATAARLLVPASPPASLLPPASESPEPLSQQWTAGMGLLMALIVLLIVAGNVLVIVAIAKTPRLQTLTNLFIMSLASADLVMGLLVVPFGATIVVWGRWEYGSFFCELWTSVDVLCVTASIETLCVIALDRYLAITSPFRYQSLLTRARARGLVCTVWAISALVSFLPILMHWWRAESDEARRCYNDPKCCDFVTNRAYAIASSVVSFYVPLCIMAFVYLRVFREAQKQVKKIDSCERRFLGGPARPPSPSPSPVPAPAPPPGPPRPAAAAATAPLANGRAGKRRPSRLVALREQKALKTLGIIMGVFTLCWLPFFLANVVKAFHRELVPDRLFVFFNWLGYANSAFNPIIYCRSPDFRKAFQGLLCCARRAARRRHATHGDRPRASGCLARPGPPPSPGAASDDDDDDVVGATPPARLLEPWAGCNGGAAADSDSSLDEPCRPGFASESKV
T3 sequence (P07550 whole entry): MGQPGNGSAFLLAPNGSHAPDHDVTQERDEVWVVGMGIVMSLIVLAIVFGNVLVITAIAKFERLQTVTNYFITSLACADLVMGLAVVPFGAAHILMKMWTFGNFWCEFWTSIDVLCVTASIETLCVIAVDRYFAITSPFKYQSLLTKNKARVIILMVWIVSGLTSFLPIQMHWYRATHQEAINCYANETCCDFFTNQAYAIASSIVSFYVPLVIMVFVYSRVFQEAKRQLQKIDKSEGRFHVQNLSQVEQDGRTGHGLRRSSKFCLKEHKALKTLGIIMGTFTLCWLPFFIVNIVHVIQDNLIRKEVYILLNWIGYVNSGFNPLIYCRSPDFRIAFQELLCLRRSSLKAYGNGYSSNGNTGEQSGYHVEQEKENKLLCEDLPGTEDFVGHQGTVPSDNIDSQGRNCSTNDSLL

Regarding `O=S(=O)(Nc1cccc([C@@H](O)CNCCOc2ccc3c(OC(F)F)n[nH]c3c2)c1)c1cn[nH]c1` [ex113, (R)-N-(3-(2-(2-(3-(difluoromethoxy)-indazol-6-yloxy)ethylamino)-1-hydroxyethyl)phenyl)pyrazole-4-sulfonamide], the Emax in [1] stood at 108%; in data set [7], 3%. Moreover, the pEC50 in data set [1] (Test Case 1-B) is 7.66. Also, in [2], the “β1 receptor % of Control Agonist Response” value (from here on “β1 receptor %”) came out at 3.7%. The “number of experimental animals matching Score 0 (no piloerection)” value (from here on “number … (no piloerection)”) in data set [3] (n=4, observation time 5 min) is listed as 4; in data set [3] (n=4, observation time 15 min) it was 4; in [3] (n=4, observation time 30 min), 4; in data set [3] (n=4, observation time 60 min), 4. Moreover, the “increase in MBP (%)” value in data set [4] is recorded as 3.3 ± 1.7%. In addition, in [5], the “β2 receptor % of Control Agonist Response” value (“β2 receptor %” for short) came to 0.2%. Moreover, in data set [6], the “α1 receptor % of Control Agonist Response, Control; Epinephrine” value (from here on “α1 receptor % … Control; Epinephrine”) is 6.9%. For the same compound, in data set [6], the “α1 receptor % of Control Agonist Response, Control; Norepinephrine” value (shortened to “α1 receptor % … Norepinephrine”) was found to be 6.0%.

As to `CCc1n[nH]c2cc(OCCNC[C@H](O)c3cccc(NS(=O)(=O)c4cnn(C)c4)c3)ccc12` [ex135, (R)-N-(3-(2-(2-(3-ethylindazol-6-yloxy)ethylamino)-1-hydroxyethyl)phenyl)-1-methylpyrazole-4-sulfonamide], the values for the Emax in data set [1] and in [7] were 105% and 7%, respectively. This compound also gave a pEC50 in data set [1] (Test Case 1-B) of 7.54. Moreover, in data set [2], the “β1 receptor %” value turned out to be 3.7%. In addition, the “number … (no piloerection)” value in data set [3] (n=4, observation time 5 min) was found to be 4; in [3] (n=4, observation time 15 min), 4; in data set [3] (n=4, observation time 30 min), 4; in data set [3] (n=4, observation time 60 min) it was 4. Besides, the “increase in MBP (%)” value in data set [4] is recorded as 5.6 ± 1.2%. Besides, in data set [5], the “β2 receptor %” value was determined as 1.3%. Also, in [6], the “α1 receptor % … Control; Epinephrine” value is 0%. The “α1 receptor % … Norepinephrine” value in data set [6] came out at 0%.

In the case of `CCc1n[nH]c2cc(OCCNC[C@H](O)c3cccc(NS(=O)(=O)c4cn[nH]c4)c3)ccc12` [ex149], the Emax in [1] is 100%; in data set [7] it was 0%. In data set [1] (Test Case 1-B), this compound gave a pEC50 of 7.92. In addition, the “β1 receptor %” value in data set [2] was 5.2%. In addition, the “number … (no piloerection)” value in data set [3] (n=4, observation time 5 min) came to 4; in data set [3] (n=4, observation time 15 min), 4; in data set [3] (n=4, observation time 30 min), 4; in data set [3] (n=4, observation time 60 min), 4. Moreover, in data set [4], the “increase in MBP (%)” value was 2.1 ± 1.9%. The “β2 receptor %” value in [5] is given as 0.2%. Moreover, the “α1 receptor % … Control; Epinephrine” value in [6] is reported as 8.5%. Also, the “α1 receptor % … Norepinephrine” value in data set [6] came out at 7.3%.

Consider `CC(C)NCC(O)c1ccc(O)c(O)c1` (stereo not shown) [isoproterenol, reference compound], for which the “β3 receptor I.A.” value in data set [1] (Test Case 1-B, maximum response of isoproterenol = 100%) worked out at 100%; in data set [9], 100%. For the same compound, the “relaxant activity (%) 10^−4M” value in data set [8] (10^−4 M) came out at 54.4%. For the same compound, the “relaxant activity (%) 10^−5M” value in data set [8] (10^−5 M) is 50.6%.

A word on the pEC50: it is the EC50 on a negative log10 scale, so that one unit is a factor of ten. Lower therefore signals a high EC50.
